Assay results from ChEMBL document CHEMBL2074406, “Single amino acid substitutions in the transmembrane domains of breast cancer resistance protein (BCRP) alter cross resistance patterns in transfectants” (Int J Cancer, 2003).

target: T1, Broad substrate specificity ATP-binding cassette transporter ABCG2 (Homo sapiens, UniProt Q9UNQ0); assay: TP_TRANSPORTER: drug resistance in BCRP-expressing PA317 cells; assay type: functional, cell-based; settings: mouse
T1 sequence (Q9UNQ0 whole entry): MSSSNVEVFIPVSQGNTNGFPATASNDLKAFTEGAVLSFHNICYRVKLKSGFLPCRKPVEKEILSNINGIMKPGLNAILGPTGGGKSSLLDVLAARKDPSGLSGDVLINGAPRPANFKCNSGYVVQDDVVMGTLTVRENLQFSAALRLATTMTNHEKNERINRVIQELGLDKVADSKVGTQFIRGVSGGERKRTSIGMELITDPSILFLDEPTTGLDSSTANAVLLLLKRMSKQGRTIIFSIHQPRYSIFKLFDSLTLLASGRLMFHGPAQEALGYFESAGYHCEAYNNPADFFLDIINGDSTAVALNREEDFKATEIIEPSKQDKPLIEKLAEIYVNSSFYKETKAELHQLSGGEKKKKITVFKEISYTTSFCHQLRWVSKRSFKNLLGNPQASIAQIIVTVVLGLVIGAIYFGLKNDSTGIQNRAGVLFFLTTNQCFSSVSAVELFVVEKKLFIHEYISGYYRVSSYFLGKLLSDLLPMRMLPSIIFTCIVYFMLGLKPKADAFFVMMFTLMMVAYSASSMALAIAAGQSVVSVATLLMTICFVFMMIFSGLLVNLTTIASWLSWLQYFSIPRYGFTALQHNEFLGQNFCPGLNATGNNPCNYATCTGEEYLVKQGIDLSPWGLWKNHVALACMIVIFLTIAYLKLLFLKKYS

Row | Structure (SMILES) | Activity
1 | CCc1c2c(nc3ccc(O)cc13)-c1cc3c(c(=O)n1C2)COC(=O)[C@]3(O)CC [7-ETHYL-10-HYDROXYCAMPTOTHECIN] | substrate []
2 | C[C@]12CC[C@@H]3c4ccc(O)cc4CC[C@H]3[C@@H]1CCC2=O [ESTRONE] | inhibitor []
3 | COc1ccc2c3c([nH]c2c1)[C@H](C=C(C)C)N1C(=O)[C@@H]2CCCN2C(=O)[C@@H]1C3 [FUMITREMORGIN] | inhibitor []
4 | O=C1c2c(O)ccc(O)c2C(=O)c2c(NCCNCCO)ccc(NCCNCCO)c21 [MITOXANTRONE] | substrate []
